“And” between values parts separate entries of the source, which are not always exact repeats. Equal values may be shown once.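 Method: 48-hour compound exposure of cells in 96-well plates, five concentrations, linear interpolation of endpoints. GI50 is the concentration that inhibits growth by half. TGI marks complete inhibition of growth.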
Assays:
Assay in all cases: NCI tumour cell line growth inhibition, 48 h
NCI-H460 lung = test system: NCI-H460 lung
UACC-257 melanoma = test system: UACC-257 melanoma
OVCAR-3 ovarian = test system: OVCAR-3 ovarian
KM12 colon = test system: KM12 colon
MOLT-4 leukemia = test system: MOLT-4 leukemia
A498 renal = test system: A498 renal
RXF 393 renal = test system: RXF 393 renal
786-0 renal = test system: 786-0 renal
NCI-H226 lung = test system: NCI-H226 lung
MDA-MB-435 = test system: MDA-MB-435

SMILES	GI50 (NCI-H460 lung)	TGI (NCI-H460 lung)	GI50 (UACC-257 melanoma)	TGI (UACC-257 melanoma)	GI50 (OVCAR-3 ovarian)	TGI (OVCAR-3 ovarian)	GI50 (KM12 colon)	TGI (KM12 colon)	GI50 (MOLT-4 leukemia)	TGI (MOLT-4 leukemia)	GI50 (A498 renal)	TGI (A498 renal)	GI50 (RXF 393 renal)	TGI (RXF 393 renal)	GI50 (786-0 renal)	TGI (786-0 renal)	GI50 (NCI-H226 lung)	TGI (NCI-H226 lung)	GI50 (MDA-MB-435)	TGI (MDA-MB-435)
COc1cc(C2C(C#N)=C(N)OC3=C2C(=O)c2ccccc2C3=O)cc(OC)c1OC (configuration not stated)	0.532 µM	14.5 µM	1.18 µM	13.3 µM	0.493 µM	4.18 µM	0.728 µM	> 100 µM	4.06 µM	24.4 µM	0.327 µM	11.8 µM	0.517 µM	16.3 µM	5.8 µM	> 100 µM	1.39 µM	23.7 µM	0.239 µM	0.523 µM
COc1ccc(/C=C(\C#N)c2cc3ccccc3n2C)cc1	0.389 µM	37.9 µM	3.32 µM	> 100 µM	0.336 µM	3.19 µM	0.503 µM	> 100 µM	0.448 µM	> 40.3 µM	0.071 µM	0.675 µM	0.244 µM	0.834 µM	0.613 µM	> 100 µM	1.87 µM	> 70.8 µM	0.153 µM	0.403 µM
O=[As](O)(O)c1ccc(Cc2ccc([As](=O)(O)O)cc2)cc1		2.43 µM		1.3 µM		2.64 µM		5.44 µM		4.26 µM		3.96 µM		1.53 µM		1.29 µM		7.7 µM		2.37 µM
O=Cc1coc2ccccc2c1=O		50.9 µM		46.7 µM		> 100 µM		69.9 µM		96.1 µM		> 100 µM		40.2 µM		37.9 µM		84.4 µM		47.9 µM
O=C(/C=C\c1ccnc2ccccc12)c1ccc([N+](=O)[O-])cc1	> 68.1 µM	> 100 µM	8.8 µM	> 60.7 µM	7.23 µM	43.2 µM	3 µM	11.1 µM	4.21 µM	> 83 µM	1.68 µM	> 100 µM	12 µM	> 66 µM	16.9 µM	> 89 µM	6.35 µM	> 100 µM	2.24 µM	6.55 µM
Cc1nc(NC(=O)N2CCC[C@H]2C(N)=O)sc1-c1ccnc(C(C)(C)C(F)(F)F)c1	1.36 µM and 2.02 µM	> 100 µM	9.58 µM and > 10 µM	45 µM and > 10 µM	4.16 µM and 8 µM	30.7 µM and > 10 µM	15.4 µM and > 10 µM	> 91.5 µM	2.49 µM and 2.94 µM	28.2 µM and > 10 µM	1.34 µM and 2.07 µM	5.62 µM and 9.99 µM	2.78 µM and 3.45 µM	17.3 µM and > 10 µM	11.1 µM and > 10 µM	64.1 µM and > 10 µM	5.26 µM and 4.54 µM	45.7 µM and > 10 µM	7.33 µM and > 10 µM	51.6 µM and > 10 µM
C=C(C)C1/C=C(/C(C)C)CC[C@]2(C)O[C@@H]2CC[C@H](C)CC1=O (some centres not stated)	50.3 µM	> 100 µM			25.4 µM	81.1 µM	58.1 µM	> 100 µM	> 100 µM	> 100 µM	83.4 µM	> 100 µM	32 µM	> 100 µM	32.4 µM	> 100 µM	> 100 µM	> 100 µM	39 µM	> 100 µM
CCNCCNc1cc(-c2ccc(F)cc2)c(C#N)c2nc3ccccc3n12	3.36 µM	10.8 µM	2.1 µM	3.82 µM	1.97 µM	4.36 µM	8.37 µM	21.1 µM			4.79 µM	17.2 µM	1.71 µM	3.44 µM	1.77 µM	3.45 µM	12 µM	27 µM	1.78 µM	3.5 µM
Cn1cnc([N+](=O)[O-])c1Sc1ncnc2c1ncn2C1OC(CO)C(O)C1O (configuration not stated)	5.72 µM	> 100 µM	24.5 µM	> 100 µM	3.93 µM	> 100 µM	6.34 µM	> 100 µM	8.32 µM	64.5 µM	2.36 µM	> 100 µM	24.6 µM	> 100 µM	5.35 µM	> 100 µM	8.04 µM	> 100 µM	3.6 µM	> 100 µM
CCCC[C@@H](COC(=O)N(Cc1cccs1)Cc1cccs1)NC(=O)N[C@@H](CC(=O)OC)c1ccc2c(c1)OCO2	> 100 µM	> 100 µM	> 100 µM	> 100 µM	> 100 µM	> 100 µM	> 100 µM	> 100 µM	5.19 µM	> 100 µM	> 100 µM	> 100 µM	> 100 µM	> 100 µM	> 100 µM	> 100 µM	> 100 µM	> 100 µM	> 100 µM	> 100 µM
O=C(/C=C/c1ccco1)Nc1ncc(Cc2ccc(F)cc2)s1	0.0397 µM	> 100 µM		> 100 µM	0.0336 µM	0.141 µM	0.0486 µM	> 100 µM	0.0825 µM	> 100 µM	0.027 µM	0.0975 µM	0.122 µM	0.593 µM	0.157 µM	> 100 µM		> 100 µM	0.0219 µM	0.0558 µM
COc1ccc(C(Nc2ncccn2)c2cc3c(cc2O)OCO3)cc1 (configuration not stated)		47.2 µM		36.4 µM		32.7 µM		37.8 µM		82 µM		> 100 µM		36.3 µM		39.3 µM		44.6 µM		50.6 µM
Cn1c(O)c(C(=O)Nc2ccc([N+](=O)[O-])cc2)c(=O)n(C)c1=S		24.1 µM		6.36 µM		8.02 µM		7.05 µM		> 100 µM		2.17 µM		2.8 µM		8.81 µM		9.85 µM		4.95 µM
CC1(C)OCN(c2ccc(Cl)cc2)Cn2c1nc1ccccc12		> 100 µM		> 100 µM		> 100 µM		> 54.1 µM		> 100 µM		> 100 µM		> 100 µM		> 100 µM		> 100 µM		> 100 µM
FC(F)(F)c1ccc(-c2cnc(Br)nc2NC2CCCCCC2)cc1	82.2 µM	> 100 µM	63.4 µM	> 100 µM	70.8 µM	> 100 µM	52 µM	> 100 µM	41 µM	> 100 µM	40 µM	> 100 µM	24.9 µM	> 100 µM	91.2 µM	> 100 µM	24.6 µM	> 100 µM	> 100 µM	> 100 µM
N#Cc1nc(-c2ccccc2)oc1S(=O)(=O)N1CCOCC1	17.3 µM	37.2 µM	4.74 µM	19 µM	2.02 µM	3.76 µM	23.6 µM	68 µM	2.01 µM	5.08 µM	15.6 µM	32 µM	1.68 µM	3.08 µM	16 µM	32 µM	3.67 µM	16.1 µM	4.03 µM	15.1 µM
O=Nc1c(O)ccc2ccccc12	14.2 µM	35.7 µM	1.64 µM	3.2 µM	2.55 µM	9.15 µM	5.26 µM	18.4 µM	3.58 µM	28.6 µM	16.7 µM	31.4 µM	6.54 µM	19.5 µM	10.2 µM	22 µM	15.6 µM	33.4 µM	1.88 µM	3.38 µM
CCS/C(Nc1ccccc1)=C(\C#N)C(=O)Nc1ccc(OC)cc1	3.14 µM	34.2 µM	21.2 µM	> 100 µM	2.6 µM	8.59 µM	2.8 µM	> 100 µM	2.61 µM	> 100 µM	2.54 µM	26.6 µM	2.24 µM	7.86 µM	4.14 µM	> 100 µM	5.45 µM	50.7 µM	0.37 µM	1.89 µM
COc1ccc(/C=C2\N=C3SC=C(N)N3C2=O)cc1	0.582 µM	14 µM	1.06 µM	5.33 µM	1.14 µM	2.98 µM	3.08 µM	15.6 µM	0.28 µM	2.91 µM	0.177 µM	1.37 µM	0.303 µM	1.58 µM	1.28 µM	2.7 µM	1.16 µM	7.04 µM	0.808 µM	6.06 µM
C#Cc1ccc(NC(=O)c2ccc(/C=C/C(=O)c3nccn3C)cc2)cc1	0.586 µM	1.64 µM	0.66 µM	2.21 µM	0.416 µM	0.792 µM	0.421 µM	0.99 µM	0.582 µM	1.54 µM	0.512 µM	1.39 µM	0.408 µM	0.796 µM	0.454 µM	0.892 µM	0.605 µM	2 µM	0.58 µM	1.5 µM
CN(Cc1cnc2nc(N)nc(N)c2n1)c1ccc(C(=O)NC(CCC(=O)O)C(=O)O)cc1 (configuration not stated)	0.05 µM	> 100 µM	0.955 µM	> 100 µM	1.23 µM	> 100 µM	0.0875 µM	> 100 µM	0.389 µM	> 100 µM		> 100 µM		> 100 µM	0.0428 µM	> 100 µM	0.505 µM	> 100 µM	0.0478 µM	> 100 µM
C=C(C)[C@H]1CC/C(C)=C/CCC(C)C(=O)CC/C(CO)=C\[C@@H]1O (some centres not stated)	58.8 µM	> 100 µM	> 100 µM	> 100 µM	> 100 µM	> 100 µM	> 100 µM	> 100 µM	56.6 µM	> 100 µM	68.7 µM	> 100 µM	> 100 µM	> 100 µM	> 100 µM	> 100 µM	> 100 µM	> 100 µM	49.2 µM	> 100 µM
O=c1[nH]c(-c2ccc(C(F)(F)F)cc2)nc2c1CSCC2	> 100 µM	> 100 µM	> 65.2 µM	> 100 µM	27 µM	> 100 µM	> 100 µM	> 100 µM	> 100 µM	> 100 µM	22.9 µM	97.3 µM	19.6 µM	65.8 µM	35.3 µM	> 100 µM	30.4 µM	> 100 µM	> 100 µM	> 100 µM
CC/C=C\CCC/C=C1/C(=O)C=C[C@@H]1C/C=C\CCCC(=O)O	4.49 µM	25.3 µM	10.5 µM	23.7 µM	3.36 µM	10.9 µM	2.46 µM	6.62 µM	2.44 µM	8.93 µM	18.4 µM	33.9 µM	3.68 µM	10.3 µM	4.37 µM	15.1 µM	4.35 µM	30.1 µM	2.01 µM	4.99 µM
Oc1ccc2ccccc2c1N=Nc1ccccc1		> 100 µM		> 100 µM		> 100 µM	4.95 µM and 32.4 µM	> 100 µM		> 100 µM		> 100 µM		> 100 µM	35.4 µM and > 100 µM	> 100 µM		> 100 µM		> 100 µM
Oc1ccccc1-n1c(-c2ccccc2)ccc1-c1ccccc1	4.35 µM	17.7 µM	4.2 µM	27.3 µM	9.54 µM	21.7 µM	4.05 µM	19.3 µM	3.81 µM	16.8 µM	7.49 µM	35.8 µM	7.93 µM	23 µM	13.2 µM	26.5 µM	8.69 µM	21.9 µM	2.81 µM	20.9 µM
O=C1c2cc(CCl)sc2C(=O)c2ccsc21		2.63 µM		0.327 µM		0.52 µM		3.03 µM		0.47 µM		3.01 µM		0.883 µM		2.88 µM		3.1 µM		0.0339 µM
COc1ccc2c(c1)OC13Oc4cc(OC)ccc4C=C1CCCC3=C2	> 100 µM	> 100 µM	> 100 µM	> 100 µM			18.7 µM	> 100 µM	5.81 µM	> 100 µM	> 100 µM	> 100 µM	> 100 µM	> 100 µM	> 100 µM	> 100 µM	> 100 µM	> 100 µM	5.52 µM	> 100 µM

From PubChem BioAssay (NCI)
